# Measured values from US6331287A, “2'-deoxy-2'-fluoro-d-arabinofuranosyl pyrimidine nucleoside” (University Advanced Bio-imaging Associates, priority 1998, dated 2001).
# Entries after “also recorded” stand apart in the source; their conditions may differ. Like-named read-outs stand apart in the source and are kept apart here.
# Tests used:
# [1] = cited from earlier work
# [2] = dogs; cited from earlier work
# [3] = dogs, cited from earlier work
# [4] = system: viral kinases; details: relative to thymidine, cell culture systems; cited from earlier work
# [5] = patients, Phase I; cited from earlier work
# [6] = system: thymidine incorporation; details: read-out: ED50 for inhibition of thymidine incorporation; cited from earlier work
# [7] = system: mammalian kinases; details: relative to thymidine, cell culture systems; cited from earlier work
# [8] = system: organs with rapidly dividing cells such as the small intestine and spleen; details: rats; cited from earlier work
# [9] = system: host DNA; details: cited from earlier work
# [10] = system: Vero cells; details: in culture; cited from earlier work
# [11] = system: PC12 cells; details: in culture; cited from earlier work
# [12] = rats, cited from earlier work
# [13] = mice, cited from earlier work
# [14] = system: brain tumor (gliosarcoma); details: dogs not infected by herpes simplex virus, PET
# [15] = HPLC analysis of plasma samples for radiolabeled metabolites in dogs; assay type: in vivo; details: dog, FMAU over 90 minutes
# [16] = Plasma clearance of [^11 C]FMAU or [^11 C]TdR after intravenous bolus in dogs (FIG. 1); assay type: in vivo; details: dog; for plasma clearance: intravenous
# [17] = Storage stability of compound 2; assay type: physicochemical; details: after flash chromatography, anhydrous conditions
# Experimental: After purification by flash chromatography compound 2 could be stored at room temperature for at least 10 months under anhydrous conditions. Its melting point was broad due to the fact that a mixture of four diastereomers were probably present. Treatment of compound 2 with n-butyllithium (2.5 equivalent) produced the dianion 3 in situ which was treated with either unlabeled or [^11 C]-methyl iodide to produce the methylated product 4. The major by-product in the methylation reaction was the dehalogenated compound 5. The ratio of the desired product to the by-product was 43:57, as determined by ^1 HNMR integration of the C6 hydrogen. Deprotection of the tetrahydropyranyl ether produced the desired compound FMAU in 82% chemical yield.
# [18] = intravenous, through 24 hours, HPLC
# [19] = intravenous bolus 20-25 mCi, 50-100 Ci/mmol, two components of approximately equal amplitudes
structure (smiles),measurement,setting,value
"O=c1[nH]c(=O)n([C@@H]2O[C@H](CO)[C@@H](O)[C@@H]2F)cc1I [FIAU, 2'-Fluoro-5-iodo-1-β-D-arabinofuranosyluracil]",dehalogenation / deiodination in vivo,[1],deiodination followed by methylation at the 5 position of the base also can occur prior to DNA incorporation
"Cc1cn([C@@H]2O[C@H](CO)[C@@H](O)[C@@H]2F)c(=O)[nH]c1=O [FMAU, 2'-fluoro-5-methyl-1-β-D-arabinofuranosyluracil]",LD10,[2],25 mg/m^2×10 days
same,glucuronide adduct of FMAU among trace metabolites,"[3]; urine, present in all three species",most abundant in dogs
same,phosphorylation by viral kinases,[4],good substrate relative to thymidine
same,dose above which significant dose-limiting neurotoxicity developed,[5],above 8 mg/m^2×5 days
same,IC50,[6],8 to 28 µM
same,phosphorylation by mammalian kinases,[7],phosphorylated by mammalian kinases to levels approaching that of thymidine; also recorded: good substrate relative to thymidine
Cc1cn([C@@H]2O[C@H](CO)[C@@H](O)[C@@H]2F)[14c](=O)[nH]c1=O [[2-^14 C]-FMAU],accumulation in small intestine and spleen,[8],preferentially observed
same,incorporation into host DNA,[9],substantial incorporation
same,accumulation in proliferating Vero cells,[10],preferentially observed
same,composition of urine radioactivity,[3]; [18],primarily of unchanged parent compound
same,injected radioactivity cleared into the urine,[3]; intravenous,Nearly all
same,"four minor metabolites, share of total urine radioactivity",[3]; urine at 24 hr,less than 3%
same,accumulation in proliferating PC12 cells,[11],preferentially observed
same,composition of urine radioactivity,[12]; [18],primarily of unchanged parent compound
same,injected radioactivity cleared into the urine,[12]; intravenous,Nearly all
same,"four minor metabolites, share of total urine radioactivity",[12]; urine at 24 hr,< 5%
same,composition of urine radioactivity,[13]; [18],primarily of unchanged parent compound
same,injected radioactivity cleared into the urine,[13]; intravenous,Nearly all
same,"four minor metabolites, share of total urine radioactivity",[13]; urine at 24 hr,< 15%
"[11CH3]c1cn([C@@H]2O[C@H](CO)[C@@H](O)[C@@H]2F)c(=O)[nH]c1=O [[^11 C]FMAU, 2'-fluoro-5-[^11 C-methyl]-1-β-D-arabinofuranosyluracil]",localization in brain tumor / tumor visualization,[14],"localized selectively within the proliferating cells of brain tumors, but not in normal brain cells; also recorded: the tumor was well visualized; also recorded: accumulated within brain tumor cells that were not infected with herpes simplex virus"
same,radiolabeled metabolites in plasma,[15],no radiolabeled metabolites
same,plasma clearance,[16],rapid plasma clearance
same,half time of first exponential component of plasma activity concentration curve,[16]; [19],2.4 min
same,half time of second exponential component of plasma activity concentration curve,[16]; [19],63 min
same,plasma clearance,[16]; listed as [^11 C] FMAU,rapid clearance
[11CH3]c1cn([C@H]2CC(O)[C@@H](CO)O2)c(=O)[nH]c1=O (stereo partly shown) [[^11 C]TdR],radiolabeled metabolites in plasma,[15],progressive rise in radiolabeled metabolites
same,plasma clearance,[16],rapid plasma clearance
"Nc1nc(=O)n([C@@H]2O[C@H](CO)[C@@H](O)[C@@H]2F)cc1[125I] [[^125 I] labeled FIAC, [^125 I]2'-fluoro-5-iodo-1-β-D-arabinofuranosyl-cytosine]",dehalogenation / deiodination in vivo,[1],extensive deiodination in vivo
"O=c1[nH]c(=O)n([C@@H]2O[C@H](COC3CCCCO3)[C@@H](OC3CCCCO3)[C@@H]2F)cc1I (stereo partly drawn) [compound 2, 3', 5'-O-bis-(tetrahydropyranyl)-2'-fluoro-5-iodo-1-β-D-arabino-furanosyluracil]",storage stability at room temperature,[17],at least 10 months
O=c1[nH]c(=O)n([C@H]2C[C@H](O)[C@@H](CO)O2)cc1[131I] [radioiodinated IUdR],dehalogenation / deiodination in vivo,[1],significant dehalogenation
